The source of these data is patent US9061981B2, “Diphenyl substituted cyclohexane derivatives, useful as modulators of the estrogen receptors beta” (Acadia Pharmaceuticals Inc., priority 2011, dated 2015).

Data set [1] concerns the target T1, ERα (Homo sapiens, UniProt P03372).
T1 sequence (P03372 1-595): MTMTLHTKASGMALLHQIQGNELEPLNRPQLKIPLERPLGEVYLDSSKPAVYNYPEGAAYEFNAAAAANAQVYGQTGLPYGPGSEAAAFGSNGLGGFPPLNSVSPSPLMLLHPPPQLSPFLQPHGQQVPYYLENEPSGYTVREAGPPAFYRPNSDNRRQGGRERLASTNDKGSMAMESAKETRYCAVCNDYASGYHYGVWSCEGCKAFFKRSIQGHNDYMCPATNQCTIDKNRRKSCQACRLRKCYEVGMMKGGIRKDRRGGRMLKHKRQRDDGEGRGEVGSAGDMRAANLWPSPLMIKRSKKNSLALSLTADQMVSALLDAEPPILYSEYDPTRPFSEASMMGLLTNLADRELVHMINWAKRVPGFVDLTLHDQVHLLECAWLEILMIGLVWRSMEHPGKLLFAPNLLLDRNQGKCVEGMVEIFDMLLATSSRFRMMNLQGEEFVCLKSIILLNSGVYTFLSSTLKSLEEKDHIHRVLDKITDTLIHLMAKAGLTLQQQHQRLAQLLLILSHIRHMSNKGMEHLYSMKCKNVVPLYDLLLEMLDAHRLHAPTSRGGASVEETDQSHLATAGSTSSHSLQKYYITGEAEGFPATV
Nature of the data set: Competitive 3H-estradiol binding assay, ERα. As to conditions: 1 nM 3H-estradiol, HEK293T cytosolic extract; read-out: Binding ERα pKi (converted). The procedure: (§1) HEK293T cells were transiently transfected for 48 hours with expression vectors encoding ERα or ERβ, before being serum starved for 4-6 hours. Cells were then harvested by scraping in ice-cold PBS and subsequently lysed using a cold buffer containing 10 mM Tris pH 7.4, 1 mM EDTA, 1 mM DTT before being subjected to polytron twice for 10 seconds. Cytosolic extracts were isolated by centrifugation at 15000 g for 30 minutes at 4° C. Competitive binding of the test compounds or the estradiol control was performed on 20 μL extract by overnight incubation at 4° C. in a total volume of 100 μL containing 1 nM ^3H-estradiol (Perkin Elmer, Boston, Mass.). The bound fraction was separated from the unbound one by the addition of 100 μL of Dextran coated charcoal, incubated for 10 minutes and subsequent centrifugation at 1000 rpm for 10 minutes. Samples (100 μL per sample) were then analyzed by liquid scintillation. Data was then analyzed using the curve fitting software GraphPad Prism.

Data set [2] can be described thus: Microsomal bioavailability (Table 2). It is filed as in vitro ADME. The conditions noted are these: read-out: Microsomal bioavailability F (%).
Data set [3] concerns bilateral 6-hydroxydopamine (6OHDA) lesion of the substantia nigra. Kind of data set: Bilateral 6OHDA lesion of the substantia nigra, behavioral assessment. The data set is classed as in vivo, Male rats. The conditions noted are these: 6OHDA rats, once daily 7 days sc; 10 mg/kg (estradiol 100 μg/kg). How it is done: (§2) Male rats received baseline assessment of weight, motor function (spontaneous locomotor behavior, rotorod performance) and sensorimotor gating (prepulse inhibition). Subjects were assigned to treatment conditions to equalize performance on all these measures. Subjects were then treated once daily for 7 days with either sesame oil vehicle, estradiol (100 μg/kg sc), Comparative substance 131 (10 mg/kg sc), Compound 8 (10 mg/kg sc), Comparative substance 623 (10 mg/kg sc) or Comparative substance 957 (10 mg/kg sc). On the second day of treatment, subjects received bilateral sham or 6OHDA lesions (8 μg in 4 μl) of the substantia nigra (A/P−5.0 mm, M/L±1.6 mm, D/V−8.2 mm) following the atlas of Paxinos and Watson (Paxinos, G., Watson, C., The Rat Brain in Stereotaxic Coordinates, Fourth Edition, New York: Academic Press, Spiral Bound, 1998). Behavioral assessments of motor function (spontaneous locomotion, rotorod and traversing a challenging beam), cognition (novel object recognition) and sensorimotor gating (prepulse inhibition) began after the final day of treatment. Following behavioral assessment, SN and striatal tissue were collected in order to determine the intactness of the nigrostriatal dopamine system.

Data set [4] concerns nigrostriatal dopamine neurons. Kind of data set: Tyrosine hydroxylase immunofluorescence in SN and STR after 6OHDA lesion. It is filed as in vivo, Male rats. As to conditions: 6OHDA rats, once daily 7 days sc; 10 mg/kg (estradiol 100 μg/kg). How it is done: as §2
Comparative compound 131 and Compound 8 were compared with estradiol for their ability to protect nigrostriatal dopamine neurons as measured by tyrosine hydroxylase (TH) immunohistochemistry in the SN and striatum (STR).

Data set [5] has as its target T2, ERβ (Homo sapiens, UniProt Q92731). Nature of the data set: R-SAT functional assay, ERβ. The data set is classed as cell-based. Details: expressed in transfected cells; host or cells: transient transfection. The conditions noted are these: NIH3T3; NIH-3T3 cells; read-out: R-SAT Erβ % Eff. From the text: (§3) R-SAT® (Receptor Selection and Amplification Technology) is a cell-based functional assay that allows one to monitor receptor-dependent proliferative responses and has been described elsewhere. […] This process is achieved by partial cellular transformation via loss of contact inhibition and growth factor dependency. Monitoring is achieved by transfecting the cells with a β-galactosidase reporter gene vector whose expression is under a constitutively active promoter. Briefly, NIH-3T3 fibroblasts were plated overnight in 96-wells plates in DMEM 10% calf serum (Hyclone) and grown to 60-70% confluency prior to transfection. Transient transfections were performed using Polyfect (Qiagen) according to manufacturer's instructions. Typically a transfection mix would consist of the receptor and the β-galactosidase expression vectors. Sixteen hours post-transfection, cells were incubated with different doses of ligand in DMEM containing 30% Ultraculture (Hyclone) and 0.4% calf serum (Hyclone) to generate a dose response curve. […] Plates were read using a microplate reader at 420 nm. Data from R-SAT® assays were fit to the equation: r=A+B(x/(x+c)), where A=minimum response, B=maximum response minus minimum response, c=EC50, r=response, and x=concentration of ligand. Curves were generated using the curve fitting softwares Excel Fit and GraphPad Prism (San Diego, Calif.). Luciferase Reporter Gene Assay

Data set [6] addresses T1, ERα. Kind of data set: Luciferase reporter gene assay (3*ERE) in HEK293 cells, ERα. The data set is classed as cell-based. As to conditions: 48 hours. Details: expressed in transfected cells; host or cells: transient transfection. How it is done: (§4) HEK293 cells were grown to 70% confluency in DMEM containing 10% calf serum (Hyclone) prior to transfection. On the day of transfection (day 1), expression vectors for ERα or ERβ were cotransfected along a construct containing a synthetic 3*ERE upstream of the luciferase gene (Panomics), using Polyfect (Qiagen) per manufacturer's recommendations (ERE being estrogen response element). Sixteen hours post-transfection, cells were incubated in serum free DMEM. […] Cells extracts were then obtained by lyzing and the Luciferase activity measured, all of these steps performed using a commercially available kit (Promega).
On the technique in general: In a reporter assay the amount or activity of a reporter protein is the signal.

Data set [7] deals with T2, ERβ. Nature of the data set: R-SAT functional assay, ERβ. It is filed as cell-based. Also noted: expressed in transfected cells; host or cells: transient transfection.
For data set [8], the target named is T2, ERβ. Nature of the data set: Luciferase reporter gene assay (3*ERE) in HEK293 cells, ERβ. Also noted: expressed in transfected cells; host or cells: HEK293 cells, transient transfection. The data set is classed as cell-based. The procedure: as §4
The target in data set [9] is T2, ERβ. Kind of data set: Competitive 3H-estradiol binding assay, ERβ. Also noted: expressed in transfected cells; host or cells: HEK293 cells, transient transfection. The procedure: as §1, with “Cells” for “HEK293T cells were transiently transfected for 48 hours with expression vectors encoding ERα or ERβ, before being serum starved for 4-6 hours. Cells”
The target in data set [10] is T1, ERα. Kind of data set: R-SAT functional assay, ERα. The data set is classed as cell-based. Also noted: expressed in transfected cells; host or cells: NIH-3T3 fibroblasts, transient transfection. The conditions noted are these: NIH-3T3 cells.
Source text: as §3

T2 sequence (Q92731 whole entry, species assumed): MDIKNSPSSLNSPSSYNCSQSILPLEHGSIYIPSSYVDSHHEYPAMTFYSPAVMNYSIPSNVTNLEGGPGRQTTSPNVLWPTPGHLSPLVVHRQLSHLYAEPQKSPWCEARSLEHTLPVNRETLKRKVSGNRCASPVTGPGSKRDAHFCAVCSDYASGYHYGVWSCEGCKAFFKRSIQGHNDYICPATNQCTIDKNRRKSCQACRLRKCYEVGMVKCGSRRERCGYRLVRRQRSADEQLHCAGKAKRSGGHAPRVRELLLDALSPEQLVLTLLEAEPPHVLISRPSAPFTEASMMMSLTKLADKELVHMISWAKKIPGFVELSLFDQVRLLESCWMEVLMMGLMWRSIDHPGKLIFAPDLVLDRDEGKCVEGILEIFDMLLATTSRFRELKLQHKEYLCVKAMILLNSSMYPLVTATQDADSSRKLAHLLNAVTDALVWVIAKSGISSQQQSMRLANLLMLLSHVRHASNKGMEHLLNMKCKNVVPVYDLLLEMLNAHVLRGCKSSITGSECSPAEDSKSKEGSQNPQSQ

Consider `Oc1ccc(C2(c3ccccc3)CCCCC2)cc1` [Compound 131], for which the values for the Ki in [1] and in data set [9] were 1 µM and 0.0501 µM, respectively. The Microsomal bioavailability (predicted from microsomes) in data set [2] was 0%. In [3], the “motor performance (spontaneous locomotor activity, rotorod, challenging beam)” value is listed as “prevented the impairment”. The “novel object recognition (cognition)” value in [3] was “showed improved memory”. For the same compound, the “prepulse inhibition (sensorimotor gating)” value in [3] is recorded as “prevented the 6OHDA-induced deficit in PPI”. For the same compound, in data set [4], the “percent immunopositive and mean pixel intensity of TH immunofluorescence in the STR” value was “increase in percentage of the image that was immunopositive and increased mean pixel intensity”. In data set [4], the “percent immunopositive, mean cell size and mean pixel intensity of TH immunofluorescence in the SN” value is “improved percent immunopositive, mean cell size and mean pixel intensity”. For the same compound, the “tyrosine hydroxylase positive cell number in the SN” value in data set [4] is “prevented the reduction in cell number”. The Emax was 71% in data set [5] and 80% in data set [8] (HEK293 cells, 48 hours, read-out: Luciferase Erβ % Eff). For the same compound, in [6], the “Luciferase Erα % Eff” value came to 29%. Moreover, the EC50 was 15.8 µM in data set [6] (na = not active, read-out: Luciferase Erα pEC50 (converted)); 0.0316 µM in data set [7]; 0.02 µM in data set [8]. Also, the “R-SAT Erα % Eff” value in data set [10] stood at 42%.
